Measurements as given in PMC6630221, “Semi-Synthesis and Evaluation of Sargahydroquinoic Acid Derivatives as Potential Antimalarial Agents” (Medicines, 2019).

Legend:
[1] = test system: chloroquine-resistant Gambian FCR-3 strain of P. falciparum; assay: Antiplasmodial tritiated hypoxanthine incorporation assay; type: cell-based, Plasmodium falciparum; settings: for IC50: Plasmodium falciparum, FCR3, chloroquine-resistant FCR-3 strain, 0.5% parasitaemia, 1% haematocrit, triplicate; for Selectivity Index: ratio of cytotoxicity IC50 (MDA-MB-231) to antimalarial IC50 (FCR-3); for antiplasmodial activity (in words): FCR-3 strain of P. falciparum
Procedure: All compounds were tested in triplicate against the chloroquine-resistant Gambian FCR-3 strain of P. falciparum. The in vitro erythrocytic stage of the parasite was maintained using the method outlined by Trager and Jensen. The antimalarial activity of the compounds was determined using the tritiated hypoxanthine incorporation assay using a 0.5% parasitaemia and 1% haematocrit. All assays were carried out using untreated parasites and uninfected red blood cells as controls. The concentration that inhibited 50% parasite growth (IC50 value) was determined from the log sigmoid dose response curve using GraphPad Prism. Quinine was used as the reference antiplasmodial agent. The selectivity index for the compounds was determined from the ratio of cytotoxicity IC50 to antimalarial IC50.

[2] = test system: MDA-MB-231 breast carcinoma cells; assay: Cytotoxicity WST-1 assay; type: cell-based; settings: MDA-MB-231 cells; for IC50: Homo sapiens, WST-1, triplicate
Procedure: All compounds were tested in triplicate against MDA-MB-231 breast carcinoma cells, which were purchased from the ATCC (Catalogue number HTB-26, Manassas, VA, USA). The cytotoxicity of the compounds was determined using the WST-1 assay method (Roche). The cells were treated with a range of concentrations of the test compounds or vehicle control (DMSO). Cells treated with DMSO were considered to represent 100% viability and the viability of cells at each dose was represented relative to this value. The concentration resulting in a decrease of cell viability to 50% was calculated from the linear portion of the dose response curve.

[3] = test system: Plasmodium falciparum (D10); parameters: method as in PMID 19227833; settings: chloroquine sensitive strain D10 of P. falciparum; ref [5]; cited from earlier work
[4] = listed as sarganaphthoquinoic acid (10)

SMILES | IC50 [1] | Selectivity Index [1] | IC50 [2] | antiplasmodial activity (in words) [1] | antiplasmodial activity (in words) [1, 4] | cytotoxicity (in words) [2] | cytotoxicity (in words) [2, 4] | IC50 [3]
CC(C)=CCC/C(=C/CC/C(C)=C/CC/C(C)=C/CC1=CC(=O)C=C(C)C1=O)CO [Sargaquinol (6), sargaquinol] | 93.1 µM | 1.1 | 99 µM | decreased antiplasmodial activity |  |  |  | 
CC(C)=CCC/C(C=O)=C\CC/C(C)=C/CC/C(C)=C/CC1=CC(=O)C=C(C)C1=O [10E-sargaquinal (9), 10’E-sargaquinal] | 104 µM | 0.7 | 69 µM | decreased antiplasmodial activity |  |  |  | 2 µM
CC(C)=CCC/C(=C/CC/C(C)=C/CCC1(C)C=Cc2cc(O)cc(C)c2O1)C(=O)O (stereo not drawn) [Sargachromenol (7), sargachromenol] | 115 µM | 0.5 | 56 µM |  |  |  |  | 
CC(C)=CCC/C(C=O)=C/CC/C(C)=C/CC/C(C)=C/CC1=CC(=O)C=C(C)C1=O [10Z-sargaquinal (4), 2’E,6’E,10’Z-sargaquinal] | 72.6 µM | 2.9 | 211 µM | decreased antiplasmodial activity |  |  |  | 
CC(=O)Oc1cc(C)c(OC(C)=O)c(C/C=C(\C)CC/C=C(\C)CC/C=C(/CCC=C(C)C)C(=O)O)c1 [Sargahydroquinoic acid di-acetate (2), Diacetyl Sargahydroquinoic Acid] | 84.3 µM | 3.4 | 286 µM |  |  |  |  | 

Compounds with a lower IC50 [1], results first:

IC50 [1] | SMILES | Selectivity Index [1] | IC50 [2] | antiplasmodial activity (in words) [1] | antiplasmodial activity (in words) [1, 4] | cytotoxicity (in words) [2] | cytotoxicity (in words) [2, 4] | IC50 [3]
8.2 µM | COC(=O)/C(=C\CC/C(C)=C/CC/C(C)=C/CC1=CC(=O)C=C(C)C1=O)CCC=C(C)C [Sargaquinoic acid methyl ester (5), sargaquinoic acid methyl ester] | 8.6 | 70 µM |  |  |  |  | 
5.4 µM | CC(C)=CCC/C(=C/CC/C(C)=C/CCc1ccc2c(c1)C(=O)C=C(C)C2=O)C(=O)O [Sarganaphthoquinone (10), sarganaphthoquinoic acid] |  | 2410 µM | most promising antiplasmodial activity | good antiplasmodial activity | low cytotoxicity | almost non-toxic | 
34.2 µM | CC(C)=CCC/C(=C/CC/C(C)=C/CCC1(C)C=Cc2cc(O)cc(C)c2O1)CO (stereo not drawn) [Sargachromendiol (8), sargachromendiol] | 5.5 | 187 µM |  |  |  |  | 
0.17 µM | C=C[C@H]1C[N@@]2CC[C@H]1C[C@H]2[C@H](O)c1ccnc2ccc(OC)cc12 [Quinine, reference compound] |  |  |  |  |  |  | 
10.8 µM | CC(C)=CCC/C(=C/CC/C(C)=C/CC/C(C)=C/CC1=CC(=O)C=C(C)C1=O)C(=O)O [Sargaquinoic acid (3), sargaquinoic acid] | 60.9 | 658 µM | most promising antiplasmodial activity |  | low cytotoxicity |  | 12 µM
38.6 µM | CC(C)=CCC/C(=C/CC/C(C)=C/CC/C(C)=C/Cc1cc(O)cc(C)c1O)C(=O)O [Sargahydroquinoic acid (1), sargahydroquinoic acid] | 1.8 | 70 µM |  |  |  |  | 15.2 µM
